How the values were obtained:
Delta-5-Desaturase (D5D) [1] = target: Delta-5-Desaturase (D5D) (Mus musculus (Mouse), UniProt Q920L1); assay: In vivo measurement of Delta-5-Desaturase inhibitory activity (plasma AA/DGLA ratio in DIO mice); details: single oral dose 30 mg/kg, read-out: Average % D5D Inhibition expressed as Plasma Endogenous AA/DGLA Ratio
Method: In vivo Measurement of Delta-5-Desaturase Inhibitory Activity
Diet-induced obese (DIO; Jackson Laboratories strain #3800050) mice were used to screen for pharmacodynamic (PD) activity of test compounds. Generally, 14 to 24 week old DIO mice, were administered test compounds formulated in the vehicle of 2% hydroxypropyl methylcellulose (HPMC) and 1% Tween80. Animals were dosed on body weight by oral gavage with a single dose (30 mg/kg) for PD studies. Necropsy included plasma collection for PUFA analysis. 10 μl of plasma or standards diluted in surrogate matrix (65 g/l bovine serum albumin in Dulbecco's phosphate-buffered saline) were mixed with 10 μl of an internal standard (100 μM alpha-linolenic acid-d14 (ALA-d14, Cayman Chemical)) in a 96 well plate. 100 μl of 2N NAOH was added to the mixture for subsequent saponification at 65° C. for 1 hour. The mixture was then acidified with 50 μl of formic acid followed by two consecutive hexane extractions. Hexane (500 μl) was added and the mixture thoroughly mixed by vortexing, followed by centrifugation at 4,000 rpm for 15 min. The hexane phase was transferred to a new 1 ml 96 well plate and the remaining aqueous layer was extracted with hexane. The organic extracts were combined and the solvent was removed by placing the plate under nitrogen gas at 55° C. 250 μl of 90% methanol was added to the plate followed by vortexing for 2 minutes. 200 μl of the samples were transferred to a new 96 well polypropylene plate. The samples were analyzed on a LC-MS/MS for the following PUFAs: arachidonic acid (AA), dihomo-gamma-linolenic acid (DGLA), with ALA-d14 as the internal standard. Description of the LC-MS/MS method: 5 μl of sample was injected onto a Poroshell 120 EC-C18 3.0×50 mm, 1.9 μm id column. […] The PUFA peak areas were quantified by using the SCIEX Analyst software. […] The relative decrease of the AA/DGLA ratio of the test compound administered group relative to the vehicle administered group was calculated and used as an index for the degree of D5D inhibition.
The results presented in Table 27 were obtained using certain compounds described herein in the in vivo protocol described above.

Delta-5-Desaturase (D5D) [2] = target: Delta-5-Desaturase (D5D) (Homo sapiens (Human), UniProt O60427); assay: In vitro measurement of Delta-5-Desaturase inhibitory activity using DGLA-CoA and Arachidonyl-CoA mass spectrometric assays; format: biochemical; details: membrane preparations of D5D-overexpressing HEK293 6E cells; averaged over at least two independent runs
Procedure, shortened: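 DGLA-CoA and arachidonyl-CoA were read by RapidFire SPE triple-quad MS (negative mode, MRM) after a 1 h ambient-temperature reaction quenched with acetonitrile. Enzyme was D5D-overexpressing HEK293 6E membranes at 10 μg/mL final; substrate solution held 0.01 mM DGLA plus NADH, ATP and CoA. Inhibition was referenced to DMSO and no-enzyme wells; 4PL IC50.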

Chain of Delta-5-Desaturase (D5D) (Mus musculus (Mouse), UniProt Q920L1) (Q920L1 whole entry): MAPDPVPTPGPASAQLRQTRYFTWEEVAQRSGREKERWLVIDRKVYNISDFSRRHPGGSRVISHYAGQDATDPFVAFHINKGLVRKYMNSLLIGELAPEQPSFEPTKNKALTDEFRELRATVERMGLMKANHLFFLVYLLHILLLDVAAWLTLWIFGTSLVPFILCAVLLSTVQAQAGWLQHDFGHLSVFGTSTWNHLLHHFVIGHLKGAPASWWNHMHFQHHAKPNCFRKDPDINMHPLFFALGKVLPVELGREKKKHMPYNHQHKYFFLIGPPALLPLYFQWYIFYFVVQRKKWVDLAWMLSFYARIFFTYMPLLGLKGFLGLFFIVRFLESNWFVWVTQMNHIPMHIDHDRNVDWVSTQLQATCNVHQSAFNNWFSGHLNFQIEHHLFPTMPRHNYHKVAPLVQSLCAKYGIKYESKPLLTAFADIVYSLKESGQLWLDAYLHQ
Chain of Delta-5-Desaturase (D5D) (Homo sapiens (Human), UniProt O60427) (O60427 whole entry, species assumed): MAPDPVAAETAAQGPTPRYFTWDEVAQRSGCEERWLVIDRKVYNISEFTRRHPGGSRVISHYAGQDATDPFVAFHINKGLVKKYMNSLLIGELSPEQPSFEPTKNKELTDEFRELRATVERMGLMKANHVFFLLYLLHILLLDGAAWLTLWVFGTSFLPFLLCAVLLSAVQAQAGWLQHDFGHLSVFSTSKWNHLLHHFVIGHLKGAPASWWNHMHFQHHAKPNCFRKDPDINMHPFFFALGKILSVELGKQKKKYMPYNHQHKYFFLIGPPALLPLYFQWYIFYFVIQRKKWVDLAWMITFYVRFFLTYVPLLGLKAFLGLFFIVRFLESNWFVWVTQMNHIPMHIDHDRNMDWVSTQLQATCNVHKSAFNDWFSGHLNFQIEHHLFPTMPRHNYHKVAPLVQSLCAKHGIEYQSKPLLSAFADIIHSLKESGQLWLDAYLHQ

| inhibition in vivo at 30 mg/kg (Delta-5-Desaturase (D5D) [1]) [%] | IC50 (Delta-5-Desaturase (D5D) [2]) [nM] | SMILES |
| --- | --- | --- |
| 37 | 27.5 | CCOc1ccn2c(=O)c(-c3ccc(OCC(F)(F)F)cc3)c(C(F)(F)F)nc2c1 [Example 11-3, 8-ethoxy-3-(4-(2,2,2-trifluoroethoxy)phenyl)-2-(trifluoromethyl)-4H-pyrido[1,2-a]pyrimidin-4-one] |
| 71 | 15.2 | COc1ccn2c(=O)c(-c3cnn(CCC(F)(F)F)c3)c(C(F)(F)F)nc2c1 [Example 1-69, 8-methoxy-2-(trifluoromethyl)-3-[1-(3,3,3-trifluoropropyl)pyrazol-4-yl]pyrido[1,2-a]pyrimidin-4-one] |
| 67 | 34.2 | [2H]C([2H])([2H])Oc1ccn2c(=O)c(-c3cnn(CC(F)(F)C(F)(F)F)c3)c(C(F)(F)F)nc2n1 [Example 3-2, 8-(methyloxy-d3)-3-(1-(2,2,3,3,3-pentafluoropropyl)-1H-pyrazol-4-yl)-2-(trifluoromethyl)-4H-pyrimido[1,2-a]pyrimidin-4-one] |
| 77 | 5.6 | O=c1c(-c2ccc(OCC(F)(F)F)cc2)c(C(F)(F)F)nc2cc(CO)ccn12 [Example 13-3, 8-(hydroxymethyl)-3-(4-(2,2,2-trifluoroethoxy)phenyl)-2-(trifluoromethyl)-4H-pyrido[1,2-a]pyrimidin-4-one] |
| 71 | 20.9 | COc1cc2nc(C(F)(F)F)c(-c3cnn(CC(F)(F)C(F)(F)F)c3)c(=O)n2cc1F [Example 33, 7-Fluoro-8-methoxy-3-[1-(2,2,3,3,3-pentafluoropropyl)-1H-pyrazol-4-yl]-2-(trifluoromethyl)-4H-pyrido[1,2-a]pyrimidin-4-one] |
| 62 | 10.1 | O=c1c(-c2cnn(CC(F)(F)C(F)(F)F)c2)c(C(F)(F)F)nc2cc(OCF)ccn12 [Example 45, 8-(Fluoromethoxy)-3-[1-(2,2,3,3,3-pentafluoropropyl)-1H-pyrazol-4-yl]-2-(trifluoromethyl)-4H-pyrido[1,2-a]pyrimidin-4-one] |
| 57 | 19.9 | CNc1ccn2c(=O)c(-c3cnn(CC(F)(F)C(F)(F)F)c3)c(C(F)(F)F)nc2c1 [Example 1-23, 8-(methylamino)-3-(1-(2,2,3,3,3-pentafluoropropyl)-1H-pyrazol-4-yl)-2-(trifluoromethyl)-4H-pyrido[1,2-a]pyrimidin-4-one] |
| 54 | 57.2 | COc1ccn2c(=O)c(-c3ccc(OC(F)(F)F)cc3)c(C(F)(F)F)nc2n1 [Example 1-72, 8-methoxy-3-(4-(trifluoromethoxy)phenyl)-2-(trifluoromethyl)-4H-pyrimido[1,2-a]pyrimidin-4-one] |
| 60 | 22 | COc1ccn2c(=O)c(-c3ccc(OCC(F)(F)F)cc3C)c(C(F)(F)F)nc2c1 [Example 4-3, 8-methoxy-3-(2-methyl-4-(2,2,2-trifluoroethoxy)phenyl)-2-(trifluoromethyl)-4H-pyrido[1,2-a]pyrimidin-4-one] |
| 62 | 5.1 | COc1ccn2c(=O)c(-c3ccc(OCC4CC4)cc3)c(C(F)(F)F)nc2c1 [Example 1-8, 3-(4-(cyclopropylmethoxy)phenyl)-8-methoxy-2-(trifluoromethyl)-4H-pyrido[1,2-a]pyrimidin-4-one] |
| 73 | 14.5 | [2H]C([2H])([2H])Oc1ccn2c(=O)c(-c3ccc(OCC(F)(F)F)cc3)c(C(F)(F)F)nc2n1 [Example 1-59, 8-(methyloxy-d3)-3-(4-(2,2,2-trifluoroethoxy)phenyl)-2-(trifluoromethyl)-4H-pyrimido[1,2-a]pyrimidin-4-one] |
| 77 | 7 | CNc1ccn2c(=O)c(-c3ccc(OCC(F)(F)F)cc3)c(C(F)(F)F)nc2c1 [Example 1-29, 8-(methylamino)-3-(4-(2,2,2-trifluoroethoxy)phenyl)-2-(trifluoromethyl)-4H-pyrido[1,2-a]pyrimidin-4-one] |
| 59 | 121 | CN(C)c1ccn2c(=O)c(-c3cnn(CC(F)(F)C(F)(F)F)c3)c(C(F)(F)F)nc2c1 [Example 1-22, 8-(dimethylamino)-3-(1-(2,2,3,3,3-pentafluoropropyl)-1H-pyrazol-4-yl)-2-(trifluoromethyl)-4H-pyrido[1,2-a]pyrimidin-4-one] |
| 74 | 66.1 | COc1ccn2c(=O)c(-c3ccc(OCC(F)(F)F)cc3)c(CF)nc2c1 [Example 1-58, 2-(fluoromethyl)-8-methoxy-3-(4-(2,2,2-trifluoroethoxy)phenyl)-4H-pyrido[1,2-a]pyrimidin-4-one] |
| 76 | 3.4 | COc1ccn2c(=O)c(-c3ccc(OCC(F)(F)F)cc3)c(C(F)(F)F)nc2c1 [Example 1-44, 8-methoxy-3-(4-(2,2,2-trifluoroethoxy)phenyl)-2-(trifluoromethyl)-4H-pyrido[1,2-a]pyrimidin-4-one] |
| 75 | 7.9 | COc1ccn2c(=O)c(-c3ccc(OCC(F)F)cc3)c(C(F)(F)F)nc2c1 [Example 1-10, 3-(4-(2,2-difluoroethoxy)phenyl)-8-methoxy-2-(trifluoromethyl)-4H-pyrido[1,2-a]pyrimidin-4-one] |
| 56 | 10.9 | COc1ccn2c(=O)c(-c3ccc(OCC(F)(F)F)cc3)c(C3CC3)nc2c1 [Example 1-62, 2-cyclopropyl-8-methoxy-3-(4-(2,2,2-trifluoroethoxy)phenyl)-4H-pyrido[1,2-a]pyrimidin-4-one] |
| 67 | 11.3 | COc1ccn2c(=O)c(-c3ccc(OCC(C)(F)F)cc3)c(C(F)(F)F)nc2c1 [Example 9-2, 3-(4-(2,2-difluoropropoxy)phenyl)-8-methoxy-2-(trifluoromethyl)-4H-pyrido[1,2-a]pyrimidin-4-one] |
| 60 | 6.6 | COc1ccn2c(=O)c(-c3ccc(OCC4CC4(F)F)cc3)c(C(F)(F)F)nc2c1 (stereo not drawn) [Example 1-4, 3-(4-((2,2-difluorocyclopropyl)methoxy)phenyl)-8-methoxy-2-(trifluoromethyl)-4H-pyrido[1,2-a]pyrimidin-4-one] |
| 77 | 29.6 | COc1ccn2c(=O)c(-c3cnn(CCCC(F)(F)F)c3)c(C(F)(F)F)nc2c1 [Example 1-75, 8-methoxy-3-(1-(4,4,4-trifluorobutyl)-1H-pyrazol-4-yl)-2-(trifluoromethyl)-4H-pyrido[1,2-a]pyrimidin-4-one] |
| 52 | 68.4 | O=c1ccn2c(=O)c(-c3cnn(CC(F)(F)C(F)(F)F)c3)c(C(F)(F)F)nc2[nH]1 [Example 10-4, 7-(1-(2,2,3,3,3-pentafluoropropyl)-1H-pyrazol-4-yl)-8-(trifluoromethyl)-2H-pyrimido[1,2-a]pyrimidine-2,6(1H)-dione] |
| 72 | 22 | COc1ccn2c(=O)c(-c3ccc(OCC(F)(F)F)c(F)c3)c(C(F)(F)F)nc2n1 [Example 1-73, 3-(3-fluoro-4-(2,2,2-trifluoroethoxy)phenyl)-8-methoxy-2-(trifluoromethyl)-4H-pyrimido[1,2-a]pyrimidin-4-one] |
| 70 | 12.4 | COc1ccn2c(=O)c(-c3ccc(OCC(F)(F)F)cc3)c(C(F)F)nc2c1 [Example 1-15, 2-(difluoromethyl)-8-methoxy-3-(4-(2,2,2-trifluoroethoxy)phenyl)-4H-pyrido[1,2-a]pyrimidin-4-one] |
| 60 | 27 | COc1ccn2c(=O)c(-c3ccc(OCC(F)(F)F)nc3)c(C(F)(F)F)nc2c1 [Example 7-4] |

— patent publication US12473289B2, “Heterocyclic compounds as delta-5 desaturase inhibitors and methods of use” (Amgen Inc., priority 2019, dated 2025)
